From patent publication US20230382920A1, “SHMT Inhibitors” (The Trustees of Princeton University, priority 2020, published 2023) come the findings set out here.

As a reminder, the half-life is the time in which the quantity being followed falls by half. Read a low half-life as rapid decline. As usually defined, the pIC50 is the negative decadic logarithm of the IC50, by convention in mol/L. Usually AUC(0-inf) stands for total exposure, with the tail of the curve extrapolated. A low value points to less exposure. As a reminder, the AUC(0-t) is the area under the concentration-time curve up to a stated or last time point. Low readings indicate low exposure, high ones high exposure. By Cmax is commonly meant the highest concentration seen after dosing. The Tmax is the time at which the peak concentration occurs.

Each structure is given as a SMILES string. pIC50: −log10 of the molar value. Where a name gives a salt, the structure may show the parent alone. Read-outs that look alike come from different tables or passages of the source. Some results are limits rather than exact numbers.

The nature of data set [1]: Mouse liver microsome assay (metabolic stability). The class given is in vitro ADME. The settings on record: mouse liver microsomes; for half-life at 2 µM: in vitro half-life; for microsomal CLint at 2 µM: in vitro intrinsic clearance, read-out: Relative Clint. As to the method:
Example 6. Mouse Liver Microsome Assay
Metabolic stability of several compounds in mouse liver microsomes was tested. Briefly, a master solution was prepared according to Table 31.
Two separate experiments were performed: an experiment with cofactors and an experiment without cofactors. In the experiment with cofactors 40 μL of 10 mM NADPH and 40 μL of 20 mM UDPGA were added to the incubations. The final concentrations of microsomes, NADPH and UDPGA were 0.5 mg/mL, 1 mM and 2 mM, respectively. In the experiment without cofactors 10 μL of 20 mg/mL liver microsomes and 80 μL of ultra-pure H2O were added to the incubations. The final concentration of microsomes was 0.5 mg/mL. The mixture was pre-warmed at 37° C. for 5 minutes.
The reaction was started with the addition of 4 μL of 200 μM control compound or test compound solutions. Verapamil was used as positive control in this study. The final concentration of test compound was 2 μM and the final concentration of control compound was 1 μM. The incubation solution was incubated in water bath at 37° C.
Aliquots of 50 μL were taken from the reaction solution at 0.5, 5, 15, 30, 45 and 60 minutes. The reaction was stopped by the addition of five volumes of cold acetonitrile with IS (100 nM alprazolam, 200 nM caffeine and 100 nM tolbutamide). Samples were centrifuged at 3,220 g for 40 minutes. Aliquot of 100 μL of the supernatant was mixed with 100 μL of ultra-pure H2O and then subject to LC-MS/MS analysis.
All calculations were carried out using Microsoft Excel. Peak areas were determined from extracted ion chromatograms. The slope value, k, was determined by linear regression of the natural logarithm of the remaining percentage of the parent drug versus incubation time curve. The in vitro half-life (in vitro t½) was determined from the slope value:
Conversion of the in vitro t1/2(min) into the in vitro intrinsic clearance (in vitro CLint, in μL/min/mg protein) was done using the following equation (mean of duplicate determinations): […]

The subject of data set [2] is HCT116. The data set can be described thus: HCT116 growth inhibition assay. The class given is cell-based. The settings on record: without formate. Summed up: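 HCT116 cells grown in DMEM with 10% dFBS for 24 h, then exposed to compound with or without 1 mM sodium formate. Growth read after four days by resazurin (10 μg·mL^−1, 1 h) fluorescence.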
The test system of data set [3] is HCT116. The data set can be described thus: HCT116 formate rescue assay (with sodium formate 1 mM). It is filed as cell-based. The settings on record: Homo sapiens, HCT-116, 96 h, HCT116 growth. As to the method: Example 5. HCT116 Growth Inhibition and Formate Rescue Assays
3,000 Cells were plated in each well of a 96-well plate with 80 μL of DMEM media supplemented with 10% dFBS, and incubated for 24 hours. Drugs with or without sodium formate (1 mM) were then added to each well to a final volume of 100 μL. Cell growth was measured as fluorescence intensity by resazurin after four days. In short, resazurin was added to each well to a final concentration of 10 μg·mL^−1. After incubation for one hour, fluorescence was measured by a Synergy HT plate reader (BioTek Instruments).

A short description of data set [4]: Pharmacokinetics study of KDG-0320-0A in male CD1 mice (Example 1). The class given is in vivo. The settings on record: for F: bioavailability vs 1 mg/kg IV; for MRT inf: read-out: MRTInf_obs. The method, then: A standard pharmacokinetic (PK) study of KDG-0320-0A was performed in male CD1 mice dosed with a single oral, intravenous or intraperitoneal dose of KDG-0320-0A. The parameters of the PK study are described in Table 2. Dosing solutions were freshly made prior to use. […] For IV, PO and IP, after collection, plasma samples from the same time point were pooled, and the pooled samples were analyzed by LC/MS/MS.
The desired serial concentrations of working solutions were achieved by diluting stock solution of analyte with 50% acetonitrile in water solution. 5 μL of working solutions (2, 4, 10, 20, 100, 200, 1000, 2000 ng/mL) were added to 10 μL of blank CD1 mouse plasma to achieve calibration standards of 1-1000 ng/mL (1, 2, 5, 10, 50, 100, 500, 1000 ng/mL) in a total volume of 15 μL. Four quality control (QC) samples at 2 ng/mL, 5 ng/mL, 50 ng/mL and 800 ng/mL for plasma were prepared independently of those used for the calibration curves. These QC samples were prepared on the day of analysis in the same way as calibration standards.
15 μL standards, 15 μL QC samples and 15 μL unknown samples from the blood sampling (10 μL plasma with 5 μL blank solution) were added to 200 μL of acetonitrile containing IS mixture for precipitating protein. Then, the samples were vortexed for 30 seconds. After centrifugation at 4 degrees Celsius, 4000 rpm for 15 minutes, the supernatant was diluted three times with water. 15 μL of diluted supernatant was injected into the LC/MS/MS system for quantitative analysis.
BLOQ=Below quantifiable limit of 1 ng/mL. PK parameters were estimated by non-compartmental model using WinNonlin 6.1. The PO bioavailability (F %) was calculated as following:
AUClast-PO/AUCINF-PO>80%: F=(AUCINF-PO*DoseIV)/(mean AUCINF-IV*DosePO) AUClast-PO/AUCINF-PO≤80% or AUCINF was not available: F=(AUClast-PO*DoseIV)/(mean AUClast-IV*DosePO).
The IP bioavailability (F %) was calculated as following:
AUClast-IP/AUCINF-IP>80%: F=(AUCINF-IP*DoseIV)/(mean AUCINF-IV*DoseIP) AUClast-IP/AUCINF-IP≤80% or AUCINF was not available: F=(AUClast-IP*DoseIV)/(mean AUClast-IV*DoseIP).

Where [5] appears, read: mouse, plasma, 1 mg/kg IV, read-out: Concentration IV_Mean.
The mark [6] stands for this setting: mouse, plasma, 30 mg/kg IP, read-out: Concentration IP_Mean.
[7] abbreviates: mouse, plasma, 50 mg/kg PO, read-out: Concentration PO_Mean.

Consider `Cc1n[nH]c2c1C(c1cc(C#CC3CN(C(=O)OC(C)(C)C)C3)cc(CO)c1)(C(C)C)C(C#N)=C(N)O2` (centres unmarked) [KDG-0271, tert-butyl 3-[2-(3-[6-amino-5-cyano-4-isopropyl-3-methyl-1H-pyrano[2,3-c]pyrazol-4-yl]-5-(hydroxymethyl)phenyl)ethynyl]azetidine-1-carboxylate], for which, in data set [1], the half-life at 2 µM was 0.167 to 0.333 h and the microsomal CLint at 2 µM was 70 to 100 µL/min/mg. In addition, the IC50 entry in the data set on HCT116 [2] is on record as “A″”. For the same compound, the pIC50 in the data set on HCT116 [3] is less than 5.30.

Turning to `Cc1n[nH]c2c1C(c1cc(C#C[C@H]3CC[C@H](NC(=O)OC(C)(C)C)CC3)cc(CO)c1)(C(C)C)C(C#N)=C(N)O2` (some centres unmarked) [KDG-0320, tert-butyl N-[(1r,4r)-4-[2-(3-[6-amino-5-cyano-4-isopropyl-3-methyl-1H-pyrano[2,3-c]pyrazol-4-yl]-5-(hydroxymethyl)phenyl)ethynyl]cyclohexyl]carbamate hydrochloride], in data set [1], the half-life at 2 µM was no less than 0.333 h and the microsomal CLint at 2 µM is no more than 70 µL/min/mg. Moreover, the IC50 entry in the data set on HCT116 [2] is “B″”. The pIC50 with HCT116 [3] was greater than 7.00. Moreover, in data set [4] (1 mg/kg IV), the AUC_%Extrap_obs was 2.88%, the AUClast/D amounted to 155 kg·ng·h/mL/mg, the Cl_obs was found to be 104 mL/min/kg and the Vss_obs amounted to 3.96 L/kg. Moreover, in data set [4] (30 mg/kg IP), the AUC_%Extrap_obs was 1.41%, the AUClast/D amounted to 258 kg·ng·h/mL/mg and the F was found to be 164%. Further, in data set [4] (50 mg/kg PO), the AUC_%Extrap_obs stood at 1.77%, the AUClast/D came to 32.5 kg·ng·h/mL/mg and the F is reported as 20.8%. In data set [4] (mouse, plasma, 1 mg/kg IV), this compound gave an AUC(0-inf) of 160 ng·h/mL, an AUC(0-t) of 155 ng·h/mL, a C0 of 575 ng/mL and a half-life of 1.04 h. For the same compound, in data set [4] (mouse, plasma, 1 mg/kg IV), the MRT inf is 0.632 h. Moreover, in data set [4] (mouse, plasma, 1 mg/kg IV, 0.083 h, read-out: Concentration IV_Mean), the concentration at 0.083 h came to 363 ng/mL. In data set [4] (setting [5]), the concentration at 0.25 h turned out to be 144 ng/mL, the concentration at 0.5 h amounted to 60.2 ng/mL, the concentration at 1 h was found to be 25.7 ng/mL and the concentration at 2 h amounted to 7.16 ng/mL. Moreover, in data set [4] (setting [5]), the concentration at 4 h was determined as 3.07 ng/mL. Also, in data set [4] (mouse, plasma, 30 mg/kg IP), the AUC(0-inf) is 7840 ng·h/mL, the AUC(0-t) came to 7730 ng·h/mL, the peak concentration (Cmax) turned out to be 7460 ng/mL and the Tmax was found to be 0.25 h. In data set [4] (mouse, plasma, 30 mg/kg IP), the half-life is 1.66 h and the MRT inf stood at 1.27 h. Also, in data set [4] (setting [6]), the concentration at 0.25 h is 7460 ng/mL, the concentration at 0.5 h was 5240 ng/mL, the concentration at 1 h was 3060 ng/mL and the concentration at 2 h came out at 589 ng/mL. In data set [4] (setting [6]), the concentration at 4 h came to 211 ng/mL. Moreover, the concentration at 8 h in data set [4] (mouse, plasma, 30 mg/kg IP, 8 h, read-out: Concentration IP_Mean) came to 46.2 ng/mL. In data set [4] (mouse, plasma, 50 mg/kg PO), the area under the curve AUC(0-inf) was determined as 1660 ng·h/mL, the AUC(0-t) is 1630 ng·h/mL, the peak level (Cmax) was 605 ng/mL and the time to peak (Tmax) is 1 h. Also, in data set [4] (mouse, plasma, 50 mg/kg PO), the half-life was 1.28 h and the MRT inf was determined as 2.3 h. Also, in data set [4] (setting [7]), the concentration at 0.25 h is 117 ng/mL, the concentration at 0.5 h was 315 ng/mL, the concentration at 1 h was determined as 605 ng/mL and the concentration at 2 h worked out at 411 ng/mL. Further, in data set [4] (setting [7]), the concentration at 4 h was 126 ng/mL. In data set [4] (mouse, plasma, 50 mg/kg PO, 8 h, read-out: Concentration PO_Mean), the concentration at 8 h came to 15.8 ng/mL. The “Concentration IV_Mean” value in data set [4] (plasma, 1 mg/kg IV, 8 h) is recorded as “BLOQ”. Besides, the clinical symptoms result in data set [4] (single dose 1 mg/kg IV, 50 mg/kg PO or 30 mg/kg IP, entire experiment) is recorded as “No abnormal clinical symptoms were observed”.

Regarding `Cc1n[nH]c2c1C(c1cc(C#C[C@H]3C[C@@H](NC(=O)OC(C)(C)C)C3)cc(CO)c1)(C(C)C)C(C#N)=C(N)O2` (some centres unmarked) [KDG-0388, tert-butyl N-[(1s,3s)-3-[2-(3-[6-amino-5-cyano-4-isopropyl-3-methyl-1H-pyrano[2,3-c]pyrazol-4-yl]-5-(hydroxymethyl)phenyl)ethynyl]cyclobutyl]carbamate], in data set [1], the half-life at 2 µM is no less than 0.333 h and the microsomal CLint at 2 µM was no more than 70 µL/min/mg. The IC50 result in the data set on HCT116 [2] is recorded as “B″”. The negative logarithm of the IC50 (pIC50) in the data set on HCT116 [3] was less than 5.30.
